Common to all, as to format: cell-based
One experiment concerns A2780S. The experiment in a line: MTS cell proliferation/viability assay, 72 hours drug exposure. Conditions: Homo sapiens, log10 of IC50, uM. The source says:
(§1) Ovarian cancer cell lines were either obtained from the European Collection of Cell Cultures, Salisbury, England (A2780S), or were kind gifts from Dr. Patricia Kruk, Department of Pathology, College of Medicine, University of South Florida, Tampa, Fla., and Susan Murphy, PhD, Dept of OB/GYN, Division of GYN Oncology, Duke University, Durham, N.C. (HeyA8, OVCAR2, OVCAR8, and OVCA420). Cell lines were maintained in RPMI-1640 (Invitrogen; Carlsbad, Calif.) supplemented with 10% fetal bovine serum (Fisher Scientific; Pittsburgh, Pa.), 1% sodium pyruvate, 1% penicillin/streptomycin, and 1% nonessential amino acids (HyClone; Hudson, N.H.). Mycoplasma testing was performed every 6 months following manufacturer's protocol (Lonza, Rockland, Me.).
(§2) The MTS assay was used to assess viability of the OVCA cell lines. For the assays, 3-5×10^4 cells in 100 μL were plated to each well of a 96-well plate and allowed to adhere overnight at 37° C. and 5% CO2. The following day, cells were incubated with increasing concentrations of drug for 72 hours. Cell viability was analyzed using the CellTiter96® MTS assay kit (Promega, Madison, Wis.). Three replicate wells were used for each drug concentration, and an additional three control wells received a diluent control without drug. After drug incubation, the optical density of each well was read at 490 nm using a SpectraMax 190 microplate reader (Molecular Devices Inc., Sunnyvale, Calif.). Percent cell survival was expressed as (control-treated)/(control-blank)×100. All experiments were performed three times, or the minimum number of times to ensure reproducibility and accuracy of the results.

The subject of the next experiment is OVCA2. The experiment is described as above. Conditions: log10 of IC50, uM.
Text: as §1, §2

In another experiment the test system is HEYA8. Described as above. Conditions: HEY A8, log10 of IC50, uM.
Text: as §1, §2

The next experiment has as its system OVCA8. The description is as above. Conditions: log10 of IC50, uM.
Text: as §1, §2

A further experiment concerns OVCA420. Described as above. Conditions: OVCA 420, log10 of IC50, uM.
Text: as §1, §2

The subject of the next experiment is five OVCA cell lines. Put plainly: MTS assay, summary over five OVCA cell lines. Conditions: for IC50: five OVCA cell lines, 72 hours, MTS.
Text: as §1, §2
The cytotoxic effects of continuous exposure to dasatinib and artesunate were assessed for five OVCA cell lines at 72 hours using the MTS assay (Table 5).
A general note: Tetrazolium dyes change colour on reduction, which living cells bring about.

Another experiment relates to HeyA8 OVCA cells. Put plainly: In vitro scratch assay (cell migration). Conditions: HeyA8, 25 mM or 50 mM artesunate, imaged days 0-2; DMSO vehicle closed gap within 2 days. The procedure:
The effects of pathway inhibition on OVCA cell metastatic properties were investigated using the in vitro scratch assay. HeyA8 OVCA cells were maintained in RPMI 1640 medium (Invitrogen) supplemented with 10% fetal bovine serum (FBS; Fisher Scientific, Pittsburgh, Pa.), 1% sodiumpyruvate, 1% penicillin/streptomycin (Cellgro, Manassas, Va.), and 1% nonessential amino acids (HyClone, Hudson, N.H.). Monolayers, 75-80% confluent, were cultured in serum-free media for 4 hours and then mechanically disrupted to create a wound using a 1 mL pipette tip. Culture plates were washed twice with serum-free media to remove floating cells and then incubated with media containing 10% FBS and either vehicle (dimethylsulfoxide [DMSO]) or drug. The DMSO concentration was maintained below 0.5% so as not to influence cell growth or migration. The underside of the culture plate by the wound area was marked with a Sharpie for reference, and wounds were imaged by phase-contrast microscopy on days 0, 1, and 2.

For another experiment, the system named is HeyA8 OVCA cell. The experiment in a line: HeyA8 cell proliferation under artesunate.

“Also recorded” adds a separate entry of the source. Where two headings read alike, the source gives them in different places.

As usually defined, the IC50 is the concentration at which inhibition is half-maximal.

As for `Cc1nc(Nc2ncc(C(=O)Nc3c(C)cccc3Cl)s2)cc(N2CCN(CCO)CC2)n1` [Dasatinib], the half-inhibitory concentration (IC50) with A2780S was 0.918 µM; in the experiment with OVCA2 it was 0.953 µM; with HEYA8, 0.215 µM; in the experiment with OVCA8, 0.37 µM; in the experiment with OVCA420, 0.431 µM; with five OVCA cell lines (read-out: mean IC50), 0.577 µM. Further, the concentration for half-maximal inhibition (IC50) in the experiment with five OVCA cell lines (read-out: range of IC50) lay in the range of 0.214 to 0.953 µM.
In the case of `C[C@H]1[C@H](OC(=O)CCC(=O)O)O[C@@H]2O[C@@]3(C)CC[C@H]4[C@H](C)CC[C@@H]1[C@@]24OO3` [Artesunate], the “ability of cells to migrate into the denuded area / fill in the gap of a scratch test” value in the experiment on HeyA8 OVCA cells is recorded as “impaired the ability of the cells to migrate; also recorded: impaired in their ability to fill in the gap”. For the same molecule, the IC50 was 1.23 µM in the experiment on A2780S; 1.31 µM in the experiment on OVCA2; 7.92 µM in the experiment on HEYA8; 5.9 µM in the experiment with OVCA8; 19.3 µM in the experiment with OVCA420; 4.29 µM in the experiment on five OVCA cell lines (log10 value, read-out: median IC50 (log 10) (converted)). For the same molecule, the IC50 in the experiment on five OVCA cell lines (log10 values, read-out: range of IC50 (log 10) (converted)) is 0.0882 to 1.29 µM; with five OVCA cell lines (read-out: median IC50) it was 7.13 µM; in the experiment with five OVCA cell lines (read-out: range of IC50), 1.23 to 19.3 µM. The “anti-proliferative activity against a panel of OVCA cells” value in the experiment on five OVCA cell lines (panel of OVCA cells) was “anti-proliferative activity”. The “decrease of HeyA8 OVCA cell proliferation” value in the experiment with HeyA8 OVCA cell (25 mM artesunate) is reported as “approximately 42%”; in the experiment with HeyA8 OVCA cell (50 mM artesunate), roughly 64%.
